The text below walks through data of patent US9951046B2, “TRPA1 modulators” (Algomedix, Inc., priority 2014, dated 2018).

Structures are written as SMILES. pIC50: −log10 of the molar value.

For this test, the target named is T1, human TRPA1 (Homo sapiens, UniProt O75762).
T1 construct: expressed in transfected cells
T1 sequence (O75762 whole entry): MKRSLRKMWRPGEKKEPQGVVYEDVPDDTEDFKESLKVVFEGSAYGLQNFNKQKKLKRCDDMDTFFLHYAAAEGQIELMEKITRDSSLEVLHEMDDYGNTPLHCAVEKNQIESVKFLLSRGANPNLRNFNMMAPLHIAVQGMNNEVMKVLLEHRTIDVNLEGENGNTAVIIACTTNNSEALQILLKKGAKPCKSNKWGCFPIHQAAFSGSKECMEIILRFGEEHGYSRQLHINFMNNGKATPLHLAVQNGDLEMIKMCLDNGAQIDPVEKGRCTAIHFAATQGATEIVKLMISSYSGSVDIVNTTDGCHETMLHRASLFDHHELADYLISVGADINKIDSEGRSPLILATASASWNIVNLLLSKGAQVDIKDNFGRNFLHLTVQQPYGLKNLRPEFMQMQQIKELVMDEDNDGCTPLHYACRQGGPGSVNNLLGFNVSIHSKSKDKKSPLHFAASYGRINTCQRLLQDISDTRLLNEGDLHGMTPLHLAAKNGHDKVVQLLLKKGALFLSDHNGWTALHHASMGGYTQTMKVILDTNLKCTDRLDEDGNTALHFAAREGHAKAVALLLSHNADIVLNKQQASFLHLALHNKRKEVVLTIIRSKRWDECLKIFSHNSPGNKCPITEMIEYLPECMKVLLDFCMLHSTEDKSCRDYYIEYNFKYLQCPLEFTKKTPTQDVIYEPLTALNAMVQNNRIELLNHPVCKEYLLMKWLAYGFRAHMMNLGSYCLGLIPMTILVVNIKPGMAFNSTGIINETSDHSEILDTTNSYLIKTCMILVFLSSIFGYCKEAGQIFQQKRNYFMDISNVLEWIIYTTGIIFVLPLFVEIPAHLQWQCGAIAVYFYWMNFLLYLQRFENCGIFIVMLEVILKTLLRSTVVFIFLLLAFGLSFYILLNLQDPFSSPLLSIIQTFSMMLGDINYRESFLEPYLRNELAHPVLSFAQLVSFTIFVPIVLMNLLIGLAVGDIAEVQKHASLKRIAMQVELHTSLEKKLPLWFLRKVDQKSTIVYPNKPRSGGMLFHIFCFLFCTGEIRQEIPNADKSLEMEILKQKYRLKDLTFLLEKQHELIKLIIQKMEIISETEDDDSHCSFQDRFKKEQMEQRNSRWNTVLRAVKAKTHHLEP
Nature of the test: Cell-based functional intracellular calcium ([Ca2+]i) assay, Fluo-4/Fluo-8, FlexStation, challenge with reference TRPA1 agonist (FFA, AITC or 4-HNE). As to conditions: HEK293 cells expressing human TRPA1; IC50 class after addition of reference TRPA1 agonist (FFA, AITC or 4-HNE); read-out: human TRPA1-HEK Activity. The essentials: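 Doxycycline-induced (1 μg/ml) HEK293 expressing human TRPA1, with 5 μM ruthenium red during induction, loaded with Fluo-4 or Fluo-8 plus 2 mM probenecid; FlexStation read at 20-25° C, sometimes with 0.1% BSA.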
In general terms: Calcium flux is commonly read through the fluorescence of an indicator in the cells.
Turning to `Cc1cc(N2CNC(=O)C23CCN(C(=O)c2cc(-c4cccnc4)n(-c4cc(F)c(F)c(F)c4)n2)CC3)cc(C)c1F` [Compound 204], the pIC50 is 5.30 to 9.00. Regarding `CC1CN(C(=O)c2cc(-c3cccnc3)n(-c3cc(F)c(F)c(F)c3)n2)CC(C)C1n1c(=O)[nH]c2ccc(F)c(F)c21` (centres unmarked) [Compound 207], the pIC50 was less than 4.60. As to `O=C(c1cc(-c2cccnc2)n(-c2cc(F)c(F)c(F)c2)n1)N1CCC(n2c(=O)[nH]c3cccnc32)CC1` [Compound 208], the pIC50 was 5.30 to 9.00. With `O=C(c1nn(-c2cc(F)c(F)c(F)c2)c(-c2cccnc2)c1Br)N1CCC2(CC1)C(=O)NCN2c1ccc(F)cc1` [Compound 210] the figure was 5.30 to 9.00.

On to `O=C(c1nn(-c2cc(F)c(F)c(F)c2)c(-c2cccnc2)c1Br)N1CCC(n2c(=O)[nH]c3ccc(F)c(F)c32)CC1` [Compound 211], for which the pIC50 was 5.30 to 9.00. Turning to `N#Cc1ccc(-n2nc(C(=O)N3CCC(n4c(=O)[nH]c5ccc(F)c(F)c54)CC3)cc2-c2cccnc2)cc1` [Compound 212], the pIC50 was 5.30 to 9.00. For the molecule `N#Cc1ccc(-n2nc(C(=O)N3CCC4(CC3)C(=O)NCN4c3ccc(F)c(F)c3)cc2-c2cccnc2)cc1` [Compound 213], the pIC50 is 5.30 to 9.00. On to `O=C(c1cc(-c2cccnc2)n(-c2ccc(OC(F)(F)F)c(F)c2)n1)N1CCC2(CC1)C(=O)NCN2c1ccc(F)c(F)c1` [Compound 214], for which the pIC50 is 5.30 to 9.00.

Take `O=C(c1cc(-c2cccnc2)n(-c2ccc(OC(F)(F)F)c(F)c2)n1)N1CCC(n2c(=O)[nH]c3ccc(F)c(F)c32)CC1` [Compound 215]: the pIC50 is 5.30 to 9.00. With `N#Cc1ccc(-n2nc(C(=O)N3CCC4(CC3)C(=O)NCN4c3ccc(F)c(F)c3)cc2-c2cccnc2)cc1F` [Compound 216] the figure was 5.30 to 9.00.

With `CC(C)(C)c1ccc(-n2nc(C(=O)N3CCC4(CC3)C(=O)NCN4c3ccc(F)c(F)c3)cc2-c2cccnc2)cc1` [Compound 217], the pIC50 is 5.30 to 9.00. For `O=C(c1cc(-c2cccnc2)n(-c2ccc(C(F)(F)F)cc2Cl)n1)N1CCC2(CC1)C(=O)NCN2c1ccc(F)c(F)c1` [Compound 218], the pIC50 is 5.30 to 9.00. On to `O=C(c1cc(-c2cccnc2)n(-c2c(Cl)cc(C(F)(F)F)cc2Cl)n1)N1CCC2(CC1)C(=O)NCN2c1ccc(F)c(F)c1` [Compound 219], for which the pIC50 was 5.30 to 9.00.

In the case of `O=C(c1cc(-c2cccnc2)n(-c2ccc(OC(F)(F)F)cc2)n1)N1CCC(n2c(=O)[nH]c3ccc(F)c(F)c32)CC1` [Compound 220], the pIC50 is 5.30 to 9.00.

With `O=C(c1cc(-c2cccnc2)n(-c2ccc(C(F)(F)F)c(F)c2F)n1)N1CCC(n2c(=O)[nH]c3ccc(F)c(F)c32)CC1` [Compound 222], the pIC50 was 5.30 to 9.00. Turning to `O=C(c1cc(-c2cccnc2)n(-c2cc(F)c(C(F)(F)F)cc2F)n1)N1CCC(n2c(=O)[nH]c3ccc(F)c(F)c32)CC1` [Compound 223], the pIC50 is 5.30 to 9.00. As to `N#Cc1ccc(-n2nc(C(=O)N3CCC(n4c(=O)[nH]c5ccc(F)c(F)c54)CC3)cc2-c2cccnc2)cc1F` [Compound 224], the pIC50 is 5.30 to 9.00.

For `Cc1cc(OC(F)(F)F)ccc1-n1nc(C(=O)N2CCC3(CC2)C(=O)NCN3c2ccc(F)c(F)c2)cc1-c1cccnc1` [Compound 225], the pIC50 was 5.30 to 9.00.

With `Cc1cc(OC(F)(F)F)ccc1-n1nc(C(=O)N2CCC3(CC2)C(=O)NCN3c2ccc(F)cc2)cc1-c1cccnc1` [Compound 226], the pIC50 is 5.30 to 9.00. On to `Cc1cc(OC(F)(F)F)ccc1-n1nc(C(=O)N2CCC(n3c(=O)[nH]c4ccc(F)c(F)c43)CC2)cc1-c1cccnc1` [Compound 227], for which the pIC50 is 5.30 to 9.00.

`N#Cc1ccc2c(c1)[nH]c(=O)n2C1CCN(C(=O)c2cc(-c3cccnc3)n(-c3ccc(C(F)(F)F)c(F)c3)n2)CC1` [Compound 228]: the pIC50 is 5.30 to 9.00.

For the molecule `N#Cc1ccc2c(c1)[nH]c(=O)n2C1CCN(C(=O)c2cc(-c3cccnc3)n(-c3cc(F)c(F)c(F)c3)n2)CC1` [Compound 229], the pIC50 is 5.30 to 9.00. With `O=C1Nc2ccc(F)cc2C2(CCN(C(=O)c3cc(-c4cccnc4)n(-c4ccc(C(F)(F)F)c(F)c4)n3)CC2)O1` [Compound 230], the pIC50 is 5.30 to 9.00.

For the molecule `O=C1Nc2ccc(F)cc2C2(CCN(C(=O)c3cc(-c4cccnc4)n(-c4cc(F)c(F)c(F)c4)n3)CC2)O1` [Compound 231], the pIC50 was 5.30 to 9.00. As to `N#Cc1cccc2[nH]c(=O)n(C3CCN(C(=O)c4cc(-c5cccnc5)n(-c5cc(F)c(F)c(F)c5)n4)CC3)c12` [Compound 232], the pIC50 is 5.30 to 9.00. On to `N#Cc1c(F)ccc2[nH]c(=O)n(C3CCN(C(=O)c4cc(-c5cccnc5)n(-c5cc(F)c(F)c(F)c5)n4)CC3)c12` [Compound 233], for which the pIC50 is 5.30 to 9.00. The same measure for `N#Cc1cc2[nH]c(=O)n(C3CCN(C(=O)c4cc(-c5cccnc5)n(-c5ccc(C(F)(F)F)c(F)c5)n4)CC3)c2cc1F` [Compound 234]: 5.30 to 9.00; for `N#Cc1cc2[nH]c(=O)n(C3CCN(C(=O)c4cc(-c5cccnc5)n(-c5cc(F)c(F)c(F)c5)n4)CC3)c2cc1F` [Compound 235]: 5.30 to 9.00. With `O=C(c1cc(-c2cccnc2)n(-c2ccc(C(F)(F)F)cc2C(F)(F)F)n1)N1CCC(n2c(=O)[nH]c3ccc(F)c(F)c32)CC1` [Compound 236] the figure was 5.30 to 9.00; with `O=C(c1cc(-c2cccnc2)n(-c2ccc(I)cc2)n1)N1CCC(n2c(=O)[nH]c3ccc(F)c(F)c32)CC1` [Compound 237], 5.30 to 9.00. Consider `O=C(c1cc(-c2ccc(Cl)nc2)n(-c2ccc(C(F)(F)F)c(F)c2)n1)N1CCC2(CC1)C(=O)NCN2c1ccc(F)cc1` [Compound 238], for which the pIC50 is 5.30 to 9.00. The same measure for `O=C(c1cc(-c2ccc(Cl)nc2)n(-c2ccc(C(F)(F)F)c(F)c2)n1)N1CCC(n2c(=O)[nH]c3ccc(F)c(F)c32)CC1` [Compound 239]: 5.30 to 9.00; for `N#Cc1ccc2[nH]c(=O)n(C3CCN(C(=O)c4cc(-c5cccnc5)n(-c5ccc(F)c(C(F)(F)F)c5)n4)CC3)c2c1` [Compound 240]: 5.30 to 9.00; for `O=C(c1cc(-c2cccnc2)n(-c2ccc(F)c(C(F)(F)F)c2)n1)N1CCC(n2c(=O)[nH]c3ccc(F)c(F)c32)CC1` [Compound 241]: 5.30 to 9.00.

In the case of `Cc1cc(N2CNC(=O)C23CCN(C(=O)c2cc(-c4cccnc4)n(-c4ccc(F)c(C(F)(F)F)c4)n2)CC3)cc(C)c1F` [Compound 242], the pIC50 is 5.30 to 9.00. Take `N#Cc1cccc2[nH]c(=O)n(C3CCN(C(=O)c4cc(-c5cccnc5)n(-c5ccc(C(F)(F)F)c(F)c5)n4)CC3)c12` [Compound 243]: the pIC50 was less than 4.60. Turning to `N#Cc1c(F)ccc2[nH]c(=O)n(C3CCN(C(=O)c4cc(-c5cccnc5)n(-c5ccc(C(F)(F)F)c(F)c5)n4)CC3)c12` [Compound 244], the pIC50 was 4.60 to 5.30.

On to `N#Cc1cc(C(F)(F)F)ccc1-n1nc(C(=O)N2CCC(n3c(=O)[nH]c4ccc(F)c(F)c43)CC2)cc1-c1cccnc1` [Compound 245], for which the pIC50 was less than 4.60. Consider `O=C(c1cc(-c2cccnc2)n(-c2ccc(I)cc2)n1)N1CCC2(CC1)C(=O)NCN2c1ccc(F)cc1` [Compound 246], for which the pIC50 is 5.30 to 9.00.

Regarding `O=C(c1cc(-c2cccnc2Cl)n(-c2ccc(C(F)(F)F)c(F)c2)n1)N1CCC(n2c(=O)[nH]c3ccc(F)c(F)c32)CC1` [Compound 247], the pIC50 was less than 4.60. For the molecule `N#Cc1cc(-n2nc(C(=O)N3CCC(n4c(=O)[nH]c5ccc(F)c(F)c54)CC3)cc2-c2cccnc2)ccc1F` [Compound 248], the pIC50 was 5.30 to 9.00. As to `Cc1cc(N2CNC(=O)C23CCN(C(=O)c2cc(-c4cccnc4)n(-c4ccc(F)c(C#N)c4)n2)CC3)cc(C)c1F` [Compound 249], the pIC50 was 5.30 to 9.00. For `O=C(c1cc(-c2cccnc2)n(-c2cc(F)c(F)c(F)c2)n1)N1C2CCC1CC(n1c(=O)[nH]c3ccc(F)c(F)c31)C2` (centres unmarked) [Compound 250], the pIC50 is less than 4.60. As to `O=C(c1cc(-c2ccccn2)n(-c2cc(F)c(F)c(F)c2)n1)N1CCC(n2c(=O)[nH]c3ccc(F)c(F)c32)CC1` [Compound 252], the pIC50 is 4.60 to 5.30. Take `O=C(c1cc(-c2cccnc2)n(-c2cc(F)c(F)c(F)c2)n1)N1CCC2(CC1)C(=O)NCN2c1ccc(F)cc1` [Compound 253]: the pIC50 is 5.30 to 9.00.

In the case of `O=C(c1cc(-c2cccnc2)n(-c2cc(F)c(F)c(F)c2)n1)N1CCC2(CC1)C(=O)NCN2c1ccc(F)c(F)c1` [Compound 254], the pIC50 was 5.30 to 9.00.

In the case of `Cc1cc(N2CNC(=O)C23CCN(C(=O)c2cc(-c4cccnc4)n(-c4cc(F)c(F)c(F)c4)n2)CC3)ccc1F` [Compound 255], the pIC50 is 5.30 to 9.00. Take `O=C(c1cc(-c2cccnc2)n(-c2cc(F)c(F)c(F)c2)n1)N1CCC(n2c(=O)[nH]c3ncccc32)CC1` [Compound 256]: the pIC50 is less than 4.60. For `O=C(c1cc(-c2cccnc2)n(-c2cc(F)c(F)c(F)c2)n1)N1CCC2(CC1)C(=O)NCN2c1ccc(F)cc1F` [Compound 257], the pIC50 was less than 4.60. With `O=C1Nc2ccccc2C1N1CCN(C(=O)c2cc(-c3cccnc3)n(-c3ccc(C(F)(F)F)c(F)c3)n2)CC1` (centres unmarked) [Compound 258], the pIC50 was less than 4.60. On to `O=C(c1cc(-c2cccnc2)n(-c2ccc(C(F)(F)F)c(F)c2)n1)N1CCC2(CC1)C(=O)Nc1ccccc12` [Compound 259], for which the pIC50 is 4.60 to 5.30. With `O=C(c1cc(-c2cccnc2)n(-c2ccc(C(F)(F)F)c(F)c2)n1)N1CCC(n2c(=O)[nH]c3ncccc32)CC1` [Compound 260], the pIC50 is 5.30 to 9.00.

Regarding `CC1CC(n2c(=O)[nH]c3ccccc32)CCN1C(=O)c1cc(-c2cccnc2)n(-c2ccc(C(F)(F)F)c(F)c2)n1` (centres unmarked) [Compound 261], the pIC50 was 5.30 to 9.00. With `Cc1ccc(-c2cc(C(=O)N3CCC4(CC3)C(=O)NCN4c3ccc(F)cc3)nn2-c2ccc(C(F)(F)F)c(F)c2)cn1` [Compound 262] the figure was 4.60 to 5.30; with `Cc1nc(C(F)(F)F)ccc1-c1cc(C(=O)N2CCC3(CC2)C(=O)NCN3c2ccc(F)cc2)nn1-c1ccc(C(F)(F)F)c(F)c1` [Compound 263], less than 4.60.

Consider `O=C(c1cc(-c2ccccn2)n(-c2ccc(C(F)(F)F)c(F)c2)n1)N1CCC2(CC1)C(=O)NCN2c1ccc(F)cc1` [Compound 264], for which the pIC50 was 4.60 to 5.30.
